Tests used:
H526 cells = conditions: human, 72 h
Text: To determine specific cytotoxicity, we used Cell Counting Kit-8 (Dojindo Molecular Technologies, Rockville, Md.) as previously described (50).

H524 cells = assay: Seahorse XF Real-Time ATP rate assay, H524; type: cell-based; conditions: LB100 2.5 μM, carboplatin 4 μM
Protocol: FIGS. 6A-6J depict ATP production rate in SCLC cells. FIG. 6A: H524 cells were treated with LB100 (2.5 μM), carboplatin (4 μM), or a combination, and ATP production rate was measured using the Agilent Seahorse XF Real Time ATP rate assay. mitoATP (mitochondrial) and glycoATP (glycolityc) rates were evaluated in H524 cells without and with drug treatments. […] FIG. 6B: Energetic map of H524 cells. After LB-100 and drug combination, cells became less glycolytic. FIGS. 6C-6E: The Agilent Seahorse XF pH sensor probe measures changes in the concentration of free protons, which corresponds to Extracellular Acidification Rate (ECAR). […] ATP level in cells was measured using the Agilent Seahorse XF Real Time ATP rate assay. […]
To elucidate the effect of the drugs on the glycolytic metabolism of H524 cells, we analyzed the proton efflux rate (PER). PER is calculated by subtracting acidification produced from mitochondrial CO2 production (Mitochondrial-derived CO2 can partially hydrate in the extracellular medium, resulting in additional extracellular acidification beyond that contributed by glycolysis) from total acidification or protons efflux (from both glycolysis and mitochondrial) into the extra cellular medium. […] To confirm that LB100 also affected glycolytic pathway in LB100-resistant cells, we measured PER in these cells. […]

H69 cells = assay: Glucose uptake assay (glucose oxidase); type: cell-based; conditions: LB-100 20 μM, compared with control without cells
Text: FIGS. 4A-4F depict a reactome pathway analysis of PamGene PTKs and STKs after LB-100 treatment of H524 cells and Biolog phenotype MicroArray. […] Table includes 10 carbon sources affected by LB-100 (n=3). […] P<0.001 (***) for control (untreated cells) vs. LB-100. FIG. 4D: Amplex Red Glucose/Oxidase assay kit was used to measure glucose level in cell culture media. […] Glucose concentration detected in initial medium and counted as 100%. Subtracting final medium level of glucose from initial glucose medium concentration yielded % glucose in the medium with cells (n=3). Effect of LB-100 on MET phosphorylation. FIG. 4E: H524 and H69 cells were treated overnight with LB-100 (H524—5 μM and H69—20 μM) following by stimulation with 100 ng/ml HGF in 10 min. Cells were collected and lysed for WB analysis with pMET and total MET antibody. Pan-actin was used as loading control (n=3). FIG. 4F: H524 cell lysates (control, LB-100, carboplatin and combination (LB-100/carboplatin) were analyzed by western blots to check phosphorylation status of MET at Ser985 and Tyr1234/1235. Actin was used as a loading control (n=3). […]
Glucose consumption was determined by using a colorimetric glucose assay (Invitrogen, Carlsbad, Calif.) following the manufacturer's instructions. […] The uptake of glucose was determined compared with initial glucose concentration in the cell culture medium, which was taken as 100%.

Row | SMILES | IC50 (H526 cells) [µM] | reduction of total ATP production rate compared to untreated cells (H524 cells) [%] | reduction of consumption of glucose in media (H69 cells) [%]
1 | C[NH+]1CCN(C(=O)C2C(C(=O)O)[C@H]3CC[C@@H]2O3)CC1 (stereo in doubt) [LB-100, 3-[(4-Methylpiperazin-1-yl)carbonyl]-7-oxabicyclo[2.2.1]heptane-2-carboxylic acid] | 7.2 | 73.7 | 65
2 | N.N.O=C([O-])C1(C(=O)[O-])CCC1.[Pt+2] [Carboplatin, reference compound] | – | 36.3 | –

Reference: patent publication US20230065158A1, “OXABICYCLOHEPTANES FOR TREATMENT OF SMALL CELL LUNG CANCER” (Lixte Biotechnology, Inc., priority 2021, published 2023)
